Target: T1, TGF-beta receptor type-1 (Homo sapiens, UniProt P36897)
T1 sequence (P36897 whole entry): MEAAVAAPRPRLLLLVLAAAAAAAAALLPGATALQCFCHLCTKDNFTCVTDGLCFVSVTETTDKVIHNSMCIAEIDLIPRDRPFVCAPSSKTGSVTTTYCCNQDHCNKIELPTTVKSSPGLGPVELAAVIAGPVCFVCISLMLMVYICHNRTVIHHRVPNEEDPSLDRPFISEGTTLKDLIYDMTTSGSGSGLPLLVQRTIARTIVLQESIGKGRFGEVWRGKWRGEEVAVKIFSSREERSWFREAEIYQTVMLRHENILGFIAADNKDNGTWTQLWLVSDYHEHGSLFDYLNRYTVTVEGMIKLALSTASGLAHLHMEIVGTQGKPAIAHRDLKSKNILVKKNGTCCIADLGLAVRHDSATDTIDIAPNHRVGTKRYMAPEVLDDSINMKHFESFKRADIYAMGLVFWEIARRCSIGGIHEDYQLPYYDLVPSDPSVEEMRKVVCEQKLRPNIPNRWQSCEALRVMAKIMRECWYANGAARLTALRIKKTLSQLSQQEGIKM
Test: Kinase Activity Assay
Procedure: The principle of the activity assay was that TGFβR1 phosphorylates the substrate TGFβR1tide, consuming ATP in the process. […] The specific experimental steps were as follows. Compounds were diluted 4-fold in DMSO in a dilution plate, with the final starting concentration of the compounds being 10 μM, across 10 concentration gradient points. The compounds were then further diluted 50-fold into the kinase reaction buffer and incubated on a shaker for 20 minutes. Kinase was formulated with an enzyme reaction buffer. 2 μl kinase was added to each well of the reaction plate. 1 μl of the compound diluted in buffer was added to each well, and then the plate was sealed with a sealing membrane and centrifuged at 1000 g for 30 seconds, leaving it at room temperature for 10 minutes. Solutions of TGFβR1tide and ATP were prepared with the kinase reaction buffer, and 2 μL of the TGFβR1tide/ATP solution was added to the reaction plate. The plate was sealed with a sealing film and centrifuged at 1000 g for 30 seconds. It was allowed to react at room temperature for 60 minutes. Subsequently, 4 μL of ADP-Glo was transferred to a 384-well reaction plate and centrifuged at 1000 rpm/min for 1 minute, followed by incubation at 25° C. for 40 minutes. Then, 8 μL of Detection solution was transferred to the 384-well reaction plate and centrifuged at 1000 rpm/min for 1 minute, after which it was incubated at 25° C. for 40 minutes. The RLU (Relative Luminescence Unit) signal was read using a BMG microplate reader, which was used to characterize the degree of kinase activity.

SMILES | IC50 [nM]
Cc1cccc(-c2nn3c(c2-c2ccnc(-c4nc5c([nH]4)CN(C(=O)N4CCN(C)CC4)C5)c2)CCC3)n1 [US20250179094, Compound 62] | 0.9
Cc1cccc(-c2nn(CC3CC3)cc2-c2ccnc(-c3nc4c([nH]3)CN(C(=O)N3CCN(C)CC3)C4)c2)n1 [US20250179094, Compound 43] | 2.7
Cc1cccc(-c2nn3c(c2-c2ccnc(-c4nc5c([nH]4)CN(C(=O)N4CCCC4)C5)c2)CCC3)n1 [US20250179094, Compound 72] | 2
Cc1cccc(-c2nc3n(c2-c2ccnc(-c4nc5c([nH]4)CN(C(=O)N4CC[C@@H](O)C4)C5)c2)CCC3)n1 [US20250179094, Compound 15] | 16
Cc1cccc(-c2nn(Cc3cccc(F)c3)cc2-c2ccnc(-c3nc4c([nH]3)CN(C(=O)C3CC(O)C3)C4)c2)n1 (centres undefined) [US20250179094, Compound 57] | 9.9
Cc1cccc(-c2nn(Cc3cccc(F)c3)cc2-c2ccnc(-c3nc4c([nH]3)CN(C(=O)N3CCN(C)CC3)C4)c2)n1 [US20250179094, Compound 40] | 1.6
Cc1cccc(-c2nc3n(c2-c2ccnc(-c4nc5c([nH]4)CN(C(=O)N4CCOCC4)C5)c2)CCC3)n1 [US20250179094, Compound 33] | 1.7
Cc1cccc(-c2nn(C(C)C)cc2-c2ccnc(-c3nc4c([nH]3)CN(C(=O)N3CCN(C)CC3)C4)c2)n1 [US20250179094, Compound 22] | 7.5
Cc1cccc(-c2nc[nH]c2-c2ccnc(-c3nc4c([nH]3)CN(C(=O)N3CCCC3)C4)c2)n1 [US20250179094, Compound 6] | 22
Cc1cccc(-c2nn3c(c2-c2ccnc(-c4nc5c([nH]4)CN(C(=O)N4CCOCC4)C5)c2)CCC3)n1 [US20250179094, Compound 71] | 0.67
Cc1cccc(-c2nn(Cc3ccccc3)cc2-c2ccnc(-c3nc4c([nH]3)CN(C(=O)C3CC(O)C3)C4)c2)n1 (centres undefined) [US20250179094, Compound 56] | 23
Cc1cccc(-c2nc[nH]c2-c2ccnc(-c3nc4c([nH]3)CN(C(=O)N3CCN(C)CC3)C4)c2)n1 [US20250179094, Compound 7] | 1.1
Cc1cccc(-c2nc3n(c2-c2ccnc(-c4nc5c([nH]4)CN(C(=O)N4CC[C@@H](N(C)C)C4)C5)c2)CCC3)n1 [US20250179094, Compound 34] | 1.9
Cc1cccc(-c2nn(Cc3ccccc3)cc2-c2ccnc(-c3nc4c([nH]3)CN(C(=O)N3CCN(C)CC3)C4)c2)n1 [US20250179094, Compound 23] | 0.9
Cc1cccc(-c2nc3n(c2-c2ccnc(-c4nc5c([nH]4)CN(C(=O)N4CCC(O)CC4)C5)c2)CCC3)n1 [US20250179094, Compound 27] | 4.3
Cc1cccc(-c2nn3c(c2-c2ccnc(-c4nc5c([nH]4)CN(C(=O)N4CCC(O)CC4)C5)c2)CCC3)n1 [US20250179094, Compound 70] | 2.3
Cc1cccc(-c2nc3n(c2-c2ccnc(-c4nc5c([nH]4)CN(C(=O)N4CCN(C)CC4)C5)c2)CCOC3)n1 [US20250179094, Compound 61] | 6.9
CCn1cc(-c2ccnc(-c3nc4c([nH]3)CN(C(=O)N3CCN(C)CC3)C4)c2)c(-c2cccc(C)n2)n1 [US20250179094, Compound 38] | 4.4
Cc1cccc(-c2nn(C)cc2-c2ccnc(-c3nc4c([nH]3)CN(C(=O)N3CCN(C)CC3)C4)c2)n1 [US20250179094, Compound 37] | 6.5
